{"source": "patent US9950026B2", "about": "“Methods for reducing oxidative damage” (Cornell Research Foundation, Inc., priority 2004, dated 2018)", "test_system": "islet cells isolated from mouse pancreas", "assay": "Islet isolation with SS-31 in isolation buffers (TMRM; annexin V/PI flow cytometry)", "format": "cell-based", "details": "SS-31 1 nM in all isolation buffers", "method": "Pancreas was harvested from mice and islet cells were prepared according standard procedures. In some studies, SS-31 (1 nM) was added to all isolation buffers used throughout the isolation procedure. Mitochondrial potential was measured using TMRM (red) and visualized by confocal microscopy.\nPancreas was harvested from mice and islet cells were prepared according standard procedures. In some studies, SS-31 (1 nM) was added to all isolation buffers used throughout the isolation procedure. Apoptosis was ascertained by flow cytometry using annexin V and necrosis by propidium iodide.", "note": "Where a SMILES comes first, the peptide text is derived from it. [ ]: non-standard residue; d: D form. Dmt = Cc1cc(O)cc(C)c1C[C@H](N)C(=O)O", "data": [{"smiles": "Cc1cc(O)cc(C)c1C[C@H](NC(=O)[C@H](N)CCCNC(=N)N)C(=O)N[C@@H](CCCCN)C(=O)N[C@@H](Cc1ccccc1)C(N)=O", "note": "[SS-31, D-Arg-2′6′-Dmt-Lys-Phe-NH2] (H-[dR][Dmt]KF-NH2; N-terminus assumed)", "values": [{"measurement": "apoptosis (annexin V)", "result": "reduces apoptosis"}, {"measurement": "mitochondrial potential (TMRM)", "result": "improves mitochondrial potential"}, {"measurement": "viability", "result": "increases viability"}]}]}
